Test results taken from US10233157B2, “SIK inhibitor for use in a method of treating an inflammatory and/or immune disorder” (Dana-Farber Cancer Institute, Inc., priority 2012, dated 2019).
Like-named read-outs stand apart in the source and are kept apart here.

Assays:
[1] = system: RAW264.7 macrophages; experiment: IL-10 mRNA in RAW264.7 cells with shRNA knockdown of SIKs; assay type: cell-based; details: for IC50: Mus musculus, RAW264.7, 1 h
Experimental: . (FIG. 16A) mRNA abundance of SIK1, SIK2 and SIK3 in RAW264.7 macrophages. Gene expression was measured by qPCR. The number of copies of each SIK mRNA was normalized to GAPDH. (mean±SD, n=3). (FIG. 16B) The efficiency of SIK knock-down. RAW264.7 cells were transduced with lentiviral vectors encoding a control shRNA or shRNAs targetting SIK1, SIK2 and SIK3. The expression of SIK1, SIK2 and SIK3 was measured by qPCR and normalized to that of control cells using GAPDH (mean±SD, n=3). […]. The levels of IL-10 mRNA were measured by qPCR and normalized using GAPDH. Data are presented with the highest level of expression set to 1 (mean±SD, n=3). […] (FIG. 16D) Increased IL-10 expression in cells with decreased SIK expression. […].
RNAi in Macrophages RAW264.7 cells or BMDMs were transfected with 100 pmol of SMARTpool siRNA oligos against CREB, CRTC1, CRTC2, CRTC3 or a non-targetting control (Dharmacon) using AMAXA nucleofection. Cells were cultured for 24 h prior to incubation with inhibitors for 1 h followed by stimulation for 1 h with 100 ng/ml LPS. Gene expression was measured by real-time quantitative PCR. For shRNA knockdown of SIKs, lentivirus was generated according to the manufacturer's instructions (Sigma) and RAW264.7 cells were infected using virus harvested 48 and 72 h post-transfection. Infected cells were selected using 3 μg/ml puromycin. QPCR

[2] = system: LKB1−/− macrophages; experiment: Cytokine secretion in LKB1−/− macrophages; assay type: cell-based, mouse
Description: FIGS. 9A to 9I. Genetic evidence using LKB1-deficient macrophages and a drug-resistant mutant of SIK2 to establish that inhibition of SIKs induces IL-10 production. (FIG. 9A) Loss of CRTC3 phosphorylation in LKB1−/− MEFs. (FIG. 9B) Enhanced IL-10 production and reduced secretion of pro-inflammatory cytokines in LysM-Cre-LKB1flox/flox macrophages (n=3, mean±SD). (FIG. 9C) Sequence alignment of AMPK-related kinases. The ‘gatekeeper’ site is indicated using an asterisk. (FIG. 9D) […] curves of KIN112 against different SIK2 mutants. […]. (FIG. 9F) Induction of HA-SIK2 (WT and [T96Q]) expression in RAW264.7 macrophages. […]. RAW264.7 cells were induced to express HA-SIK2-WT or HA-SIK2[T96]. As a further control, cells transduced with the empty vector and which only express endogenous SIK isoforms were also used. […]. […]. IL-10^−/− mice on a C57BL/6 background were purchased from The Jackson Laboratory, Maine, USA. LKB1^flox/flox mice on a C57BL/6 background were a generous gift from Alan Ashworth and were crossed with LysM-Cre mice to delete LKB1 in macrophages. Mice were bred at the University of Dundee under specific pathogen-free conditions in accordance with European Union regulations. Water supply for IL-10^−/− mice was supplemented with antibiotics to prevent the development of colitis. Work was approved by local ethical review and was performed with a UK Home Office project license. […]

[3] = system: CREB; experiment: Immunoblotting of CREB phosphorylation in LPS-stimulated macrophages; assay type: cell-based, mouse
Experimental: Bone-marrow derived macrophages were differentiated for 7 days in DMEM supplemented with 5 ng/ml recombinant M-CSF (R&D systems), 2 mM glutamine, 10% foetal calf serum, penicillin and streptomycin. […]
Cells were rinsed in ice-cold PBS and extracted in lysis buffer (50 mM Tris/HCl pH 7.4, 1 mM EDTA, 1 mM EGTA, 50 mM NaF, 5 mM sodium pyrophosphate, 10 mM sodium α-glycerol 1-phosphate, 1 mM dithiothreitol, 1 mM sodium orthovanadate, 0.27 M sucrose, 1% (v/v) Triton X-100, 1 μg/ml aprotinin, 1 μg/ml leupeptin and 1 mM phenylmethylsulphonyl fluoride). Cell extracts were clarified by centrifugation at 14000×g for 10 min at 4° C. and protein concentrations determined using the Bradford assay. To detect proteins in cell lysates, 20 μg of protein extract was separated by SDS-PAGE. After transfer to PVDF membranes, proteins were detected by immunoblotting and visualized by treating the blots with ECL (Amersham) followed by autoradiography. The antibody recognizing CREB phosphorylated at Ser133 was from Cell Signalling Technology and the one detecting α-tubulin was obtained from Sigma.

[4] = system: TBK1/IKKε−/− fibroblasts; experiment: nurr77 mRNA in IL-1 stimulated TBK1/IKKε−/− embryonic fibroblasts; assay type: cell-based, mouse; details: fibroblasts not expressing the IKK-related kinases
Experimental: Bone marrow-derived macrophages were differentiated for 7 days in DMEM supplemented with 5 ng/ml recombinant M-CSF (R&D systems), 2 mM glutamine, 10% foetal calf serum (FCS), penicillin and streptomycin. RAW264.7 cells and immortalized mouse embryonic fibroblasts (MEFs) from TBK1/IKKε^+/−, TBK1/IKKε^−/−, LKB1^+/+ and LKB1^−/− mice were cultured in DMEM containing 10% FCS, 2 mM glutamine and penicillin and streptomycin, while THP-1 monocytes were grown in RPMI-1640 supplemented with 10% FCS and antibiotics. For the culture of primary human macrophages, PBMCs were isolated from human blood using Ficoll and the monocytes were purified using anti-CD14 magnetic beads (Miltenyi Biotec). Monocytes were differentiated into macrophages for 6 days in the presence of 100 ng/ml M-CSF.

[5] = system: MARK isoforms; experiment: Kinase assays, MARK isoforms; assay type: biochemical; details: in vitro
Experimental: (§1) FLAG-CRTC3 was immunoprecipitated using anti-FLAG M2 agarose, washed in kinase buffer (50 mM Tris/HCl pH 7.4, 10 mM Mg acetate, 0.1 mM EGTA, 2 mM DTT) and reactions initiated by adding 4 U/ml recombinant kinase with 0.1 mM ATP (specific activity 3000 cpm/pmol). Phosphorylation of CRTC3 was monitored by autoradiography as well as immunoblotting using phosphospecific antibodies raised against Ser162, Ser329 and Ser370.

[6] = system: NUAK isoforms; experiment: Kinase assays, NUAK isoforms; assay type: biochemical; details: in vitro
Experimental: as §1

Compound	IC50 ([1]; read-out: IC50 for stimulation of IL-10 mRNA, SIK1/2/3 shRNA cells, 1 μg/ml Pam3CSK4 1 h) [nM]	IC50 ([1]; read-out: IC50 for stimulation of IL-10 mRNA, control shRNA cells, 1 μg/ml Pam3CSK4 1 h) [nM]	IL-10 mRNA expression in SIK-depleted versus wild-type macrophages ([1]; suboptimal concentration (100 nM)) [fold]	IL-10, IL-12 and TNFα secretion in response to LPS [2]	phosphorylation of CREB at Ser133 induced by LPS [3]	transcription of CREB-dependent nurr77 gene [4]	inhibition of MARK isoforms [5]	inhibition of NUAK isoforms [6]
COc1ccc(N(C(=O)Nc2c(C)cccc2C)c2cc(Nc3ccc(N4CCN(C)CC4)cc3)ncn2)c(OC)c1 [HG-9-91-01, 1-(2,4-dimethoxyphenyl)-3-(2,6-dimethylphenyl)-1-(6-((4-(4-methylpiperazin-1-yl)phenyl)amino)pyrimidin-4-yl)urea]	150 ± 20	260 ± 10	4	unaffected	–	–	–	–
O=C(NCCCNc1nc(Nc2cccc(CN3CCOCC3)c2)ncc1C1CC1)C1CCC1 [MRT67307]	–	–	–	–	little effect	could still enhance	comparable potency to the IKK-related kinases	comparable potency to the IKK-related kinases
